Test results taken from PubChem BioAssay (NCI).
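Cells were grown in 96-well plates and exposed to each compound for 48 hours at five concentrations; endpoints were interpolated linearly between bracketing concentrations, or set to the highest concentration if not reached. TGI: total growth inhibition.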

Tests used:
Test in all cases: NCI anticancer screen, dose series, 48 h
RXF 393 renal = system: RXF 393 renal
SR leukemia = system: SR leukemia
OVCAR-3 ovarian = system: OVCAR-3 ovarian
NCI-H460 lung = system: NCI-H460 lung
IGROV1 ovarian = system: IGROV1 ovarian
NCI-H226 lung = system: NCI-H226 lung
SF-268 CNS = system: SF-268 CNS
DMS 114 small cell lung = system: DMS 114 small cell lung
HCT-15 colon = system: HCT-15 colon
TK-10 renal = system: TK-10 renal
LXFL 529 NSCLC = system: LXFL 529 NSCLC
UACC-257 melanoma = system: UACC-257 melanoma
OVCAR-5 ovarian = system: OVCAR-5 ovarian
SK-OV-3 ovarian = system: SK-OV-3 ovarian
UO-31 renal = system: UO-31 renal
NCI-H522 lung = system: NCI-H522 lung
SNB-78 CNS = system: SNB-78 CNS
XF 498 CNS = system: XF 498 CNS
M19-MEL melanoma = system: M19-MEL melanoma
DLD-1 colon = system: DLD-1 colon
HOP-92 NSCLC = system: HOP-92 NSCLC
KM20L2 colon = system: KM20L2 colon
SNB-75 CNS = system: SNB-75 CNS
SN12C renal = system: SN12C renal
786-0 renal = system: 786-0 renal
KM12 colon = system: KM12 colon
HCT-116 colon = system: HCT-116 colon
LOX IMVI melanoma = system: LOX IMVI melanoma
EKVX NSCLC = system: EKVX NSCLC
U251 CNS = system: U251 CNS
DMS 273 small cell lung = system: DMS 273 small cell lung
MALME-3M melanoma = system: MALME-3M melanoma
HOP-62 NSCLC = system: HOP-62 NSCLC
SK-MEL-5 melanoma = system: SK-MEL-5 melanoma
CCRF-CEM leukemia = system: CCRF-CEM leukemia
SK-MEL-28 melanoma = system: SK-MEL-28 melanoma
SK-MEL-2 melanoma = system: SK-MEL-2 melanoma
NCI-H23 lung = system: NCI-H23 lung
HT29 colon = system: HT29 colon
SNB-19 CNS = system: SNB-19 CNS
RXF-631 renal = system: RXF-631 renal
ACHN renal = system: ACHN renal
M14 melanoma = system: M14 melanoma
K-562 leukemia = system: K-562 leukemia
CAKI-1 renal = system: CAKI-1 renal
UACC-62 melanoma = system: UACC-62 melanoma
HOP-18 NSCLC = system: HOP-18 NSCLC
SF-539 CNS = system: SF-539 CNS
A549 NSCLC = system: A549 NSCLC
RPMI-8226 leukemia = system: RPMI-8226 leukemia
OVCAR-8 ovarian = system: OVCAR-8 ovarian
COLO 205 colon = system: COLO 205 colon
MOLT-4 leukemia = system: MOLT-4 leukemia
SF-295 CNS = system: SF-295 CNS
OVCAR-4 ovarian = system: OVCAR-4 ovarian
SW-620 colon = system: SW-620 colon
HL-60(TB) leukemia = system: HL-60(TB) leukemia

Compound `Cc1noc2cccc(OCc3ccccc3)c12` has a TGI (RXF 393 renal) of over 100 µM, a TGI (SR leukemia) of over 100 µM and a TGI (OVCAR-3 ovarian) of over 100 µM. For the same compound, the TGI (NCI-H460 lung) was over 100 µM, the TGI (IGROV1 ovarian) was over 100 µM and the TGI (NCI-H226 lung) was over 100 µM. It also gave a TGI (SF-268 CNS) of over 100 µM, a TGI (DMS 114 small cell lung) of over 100 µM and a TGI (HCT-15 colon) of over 100 µM. For the same compound, the TGI (TK-10 renal) was over 100 µM, the TGI (LXFL 529 NSCLC) was over 100 µM and the TGI (UACC-257 melanoma) was over 100 µM. For the same compound, the TGI (OVCAR-5 ovarian) was over 100 µM, the TGI (SK-OV-3 ovarian) was over 100 µM and the TGI (UO-31 renal) was over 100 µM. The TGI (NCI-H522 lung) was over 100 µM, the TGI (SNB-78 CNS) was over 100 µM and the TGI (XF 498 CNS) was over 100 µM. It also gave a TGI (M19-MEL melanoma) of over 100 µM, a TGI (DLD-1 colon) of over 100 µM and a TGI (HOP-92 NSCLC) of over 100 µM. It also gave a TGI (KM20L2 colon) of over 100 µM, a TGI (SNB-75 CNS) of 87.6 µM and a TGI (SN12C renal) of over 100 µM. The TGI (786-0 renal) was over 100 µM, the TGI (KM12 colon) was over 100 µM and the TGI (HCT-116 colon) was over 100 µM. The TGI (LOX IMVI melanoma) was over 100 µM, the TGI (EKVX NSCLC) was over 100 µM and the TGI (U251 CNS) was over 100 µM. It also gave a TGI (DMS 273 small cell lung) of over 100 µM, a TGI (MALME-3M melanoma) of over 100 µM and a TGI (HOP-62 NSCLC) of over 100 µM. For the same compound, the TGI (SK-MEL-5 melanoma) was 41.5 µM, the TGI (CCRF-CEM leukemia) was over 100 µM and the TGI (SK-MEL-28 melanoma) was over 100 µM. The TGI (SK-MEL-2 melanoma) was 94.5 µM, the TGI (NCI-H23 lung) was over 100 µM and the TGI (HT29 colon) was over 100 µM. It also gave a TGI (SNB-19 CNS) of over 100 µM, a TGI (RXF-631 renal) of over 100 µM and a TGI (ACHN renal) of over 100 µM. The TGI (M14 melanoma) was over 100 µM, the TGI (K-562 leukemia) was over 100 µM and the TGI (CAKI-1 renal) was over 100 µM. For the same compound, the TGI (UACC-62 melanoma) was over 100 µM, the TGI (HOP-18 NSCLC) was over 100 µM and the TGI (SF-539 CNS) was over 100 µM. It also gave a TGI (A549 NSCLC) of over 100 µM, a TGI (RPMI-8226 leukemia) of over 100 µM and a TGI (OVCAR-8 ovarian) of over 100 µM. For the same compound, the TGI (COLO 205 colon) was over 100 µM, the TGI (MOLT-4 leukemia) was over 100 µM and the TGI (SF-295 CNS) was over 100 µM. For the same compound, the TGI (OVCAR-4 ovarian) was over 100 µM, the TGI (SW-620 colon) was over 100 µM and the TGI (HL-60(TB) leukemia) was over 100 µM.
